Molecules are shown by their SMILES.

This test deals with T1, human CRHR2-alpha (Homo sapiens, UniProt Q13324).
T1 sequence (Q13324 1-411): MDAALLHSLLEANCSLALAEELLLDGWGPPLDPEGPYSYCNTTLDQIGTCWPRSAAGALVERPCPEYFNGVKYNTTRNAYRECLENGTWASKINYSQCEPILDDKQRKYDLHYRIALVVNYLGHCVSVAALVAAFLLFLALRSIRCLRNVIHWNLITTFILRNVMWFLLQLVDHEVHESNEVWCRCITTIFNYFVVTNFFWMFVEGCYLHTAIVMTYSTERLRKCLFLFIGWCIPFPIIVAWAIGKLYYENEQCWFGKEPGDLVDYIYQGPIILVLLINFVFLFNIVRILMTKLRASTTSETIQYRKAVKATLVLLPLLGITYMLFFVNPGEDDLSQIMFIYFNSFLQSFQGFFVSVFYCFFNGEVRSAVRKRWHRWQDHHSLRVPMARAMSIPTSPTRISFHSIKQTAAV
Briefly: cAMP functional assay for human CRHR2 (LANCE Ultra cAMP, TR-FRET). Type of test: cell-based. To be noted: CHO-K1 cells expressing human CRHR2-alpha, agonist human urocortin2 at EC80, cAMP; read-out: IC50 against CRHR2. In outline: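 Inhibition of agonist-driven cAMP was assessed in recombinant CHO-K1 cells at 25° C, using 30 min compound pretreatment and 30 min stimulation with EC80 human urocortin2 (CRHR2) or CRF (CRHR1). IC50 came from dose-response fitting.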
On the technique in general: Time-resolved FRET reads energy transfer from a long-lived donor to a nearby acceptor.
As for `Cc1ncc(Cl)cc1C(=O)N[C@H]1CC[C@H](Cn2c(=O)n(-c3ccnc4ccccc34)c3ccccc32)CC1` [Example 370, 5-chloro-2-methyl-N-((1r,4r)-4-((2-oxo-3-(quinolin-4-yl)-2,3-dihydro-1H-benzo[d]imi-dazol-1-yl)methyl)cyclohexyl) nicotinamide], the 50% inhibitory concentration (IC50) was under 300 nM.
Next, `Cc1ncc(Cl)cc1C(=O)N[C@H]1CC[C@H](Cn2c(=O)n(-c3ccc4cnccc4c3)c3ccccc32)CC1` [Example 371, 5-chloro-N-((1r,4r)-4-((3-(isoquinolin-6-yl)-2-oxo-2,3-dihydro-1H-benzo[d]imidazol-1-yl)methyl)cyclo-hexyl)-2-methylnicotinamide]: under 300 nM; `O=C(N[C@H]1CC[C@H](Cn2c(=O)n(-c3ccc(N[C@H]4CCOC4)nc3)c3ccccc32)CC1)c1cc(Cl)cnc1C(F)F` [Example 372, 5-chloro-2-(difluoromethyl)-N-((1S,4r)-4-((2-oxo-3-(6-(((S)-tetrahydrofuran-3-yl)amino)pyridin-3-yl)-2,3-dihydro-1H-benzo[d]imidazol-1-yl)methyl)cyclohexyl)nicotinamide]: under 300 nM.
In the case of `N#Cc1ccncc1-n1c(=O)n(C[C@H]2CC[C@H](NC(=O)c3cc(Cl)cnc3C(F)F)CC2)c2ccccc21` [Example 373, 5-chloro-N-((1r,4r)-4-((3-(4-cyanopyridin-3-yl)-2-oxo-2,3-dihydro-1H-benzo[d]imidazol-1-yl)methyl)cyclohexyl)-2-(difluoromethyl)nicotinamide] it was under 300 nM; in that of `Cn1ncc2c(-n3c(=O)n(C[C@H]4CC[C@H](NC(=O)c5cc(Cl)cnc5C(F)F)CC4)c4ccccc43)cccc21` [Example 374, 5-chloro-2-(difluoromethyl)-N-((1r,4r)-4-((3-(1-methyl-1H-indazol-4-yl)-2-oxo-2,3-dihydro-1H-benzo[d]imidazol-1-yl)methyl)cyclohexyl) nicotinamide], under 300 nM.
In the case of `N#Cc1cccnc1-n1c(=O)n(C[C@H]2CC[C@H](NC(=O)c3cc(Cl)cnc3C(F)F)CC2)c2ccccc21` [Example 375, 5-chloro-N-((1r,4r)-4-((3-(3-cyanopyridin-2-yl)-2-oxo-2,3-dihydro-1H-benzo[d]imidazol-1-yl)methyl)cyclohexyl)-2-(difluoromethyl)nicotinamide] it was under 300 nM.
Take `Cc1ccc(-n2c(=O)n(C[C@H]3CC[C@H](NC(=O)c4cc(Cl)cnc4C(F)F)CC3)c3ccccc32)c(C)n1` [Example 376, 5-chloro-2-(difluoromethyl)-N-((1r,4r)-4-((3-(2,6-dimethyl-pyridin-3-yl)-2-oxo-2,3-dihydro-1H-benzo[d]imidazol-1-yl)methyl)cyclohexyl) nicotinamide]: the half-inhibitory concentration (IC50) is under 300 nM.
For the compound `Cc1cc(-n2c(=O)n(C[C@H]3CC[C@H](NC(=O)c4cc(Cl)cnc4C(F)F)CC3)c3ccccc32)ccn1` [Example 377, 5-chloro-2-(difluoromethyl)-N-((1r,4r)-4-((3-(2-methyl-pyridin-4-yl)-2-oxo-2,3-dihydro-1H-benzo[d]imidazol-1-yl)methyl)cyclohexyl) nicotinamide], the IC50 was under 300 nM.
As to `O=C(N[C@H]1CC[C@H](Cn2c(=O)n(-c3ccc(N[C@@H]4CCOC4)nc3)c3ccccc32)CC1)c1cc(Cl)cnc1C(F)F` [Example 379, 5-chloro-2-(difluoromethyl)-N-((1R,4r)-4-((2-oxo-3-(6-(((R)-tetrahydrofuran-3-yl)amino)pyridin-3-yl)-2,3-dihydro-1H-benzo[d]imidazol-1-yl)methyl)cyclohexyl) nicotinamide], the IC50 is under 300 nM.
In the case of `CNc1ccc(-n2c(=O)n(C[C@H]3CC[C@H](NC(=O)c4cc(Cl)cnc4C(F)F)CC3)c3ccccc32)cn1` [Example 380, 5-chloro-2-(difluoromethyl)-N-((1r,4r)-4-((3-(6-(methyl-amino)pyridin-3-yl)-2-oxo-2,3-dihydro-1H-benzo[d]imidazol-1-yl)methyl)cyclo-hexyl)nicotinamide] it was under 300 nM.
Next, `CN(C)c1ccc(-n2c(=O)n(C[C@H]3CC[C@H](NC(=O)c4cc(Cl)cnc4C(F)F)CC3)c3ccccc32)cn1` [Example 381, 5-chloro-2-(difluoromethyl)-N-((1r,4r)-4-((3-(6-(dimethyl-amino)pyridin-3-yl)-2-oxo-2,3-dihydro-1H-benzo[d]imidazol-1-yl)methyl)cyclo-hexyl)nicotinamide]: under 300 nM; `CN(CCO)c1ccc(-n2c(=O)n(C[C@H]3CC[C@H](NC(=O)c4cc(Cl)cnc4C(F)F)CC3)c3ccccc32)cn1` [Example 382, 5-chloro-2-(difluoromethyl)-N-((1r,4r)-4-((3-(6-((2-hydroxyethyl)(methyl)amino)pyridin-3-yl)-2-oxo-2,3-dihydro-1H-benzo[d]imidazol-1-yl)methyl)cyclohexyl)nicotinamide]: under 300 nM.
Next, `O=C(N[C@H]1CC[C@H](Cn2c(=O)n(-c3ccc(N4CCOCC4)nc3)c3ccccc32)CC1)c1cc(Cl)cnc1C(F)F` [Example 383, 5-chloro-2-(difluoromethyl)-N-((1r,4r)-4-((3-(6-morpholino-pyridin-3-yl)-2-oxo-2,3-dihydro-1H-benzo[d]imidazol-1-yl)methyl)cyclohexyl) nicotinamide]: under 300 nM.
Consider `O=C(N[C@H]1CC[C@H](Cn2c(=O)n(-c3ccc(CO)cc3)c3ccccc32)CC1)c1cc(Cl)cnc1C(F)F` [Example 384, 5-chloro-2-(difluoromethyl)-N-((1r,4r)-4-((3-(4-(hydroxy-methyl)phenyl)-2-oxo-2,3-dihydro-1H-benzo[d]imidazol-1-yl)methyl)cyclohexyl) nicotinamide], for which the concentration for half-maximal inhibition (IC50) was under 300 nM.
In the case of `O=C(N[C@H]1CC[C@H](Cn2c(=O)n(-c3ccc4c(c3)nnn4CCO)c3ccccc32)CC1)c1cc(Cl)cnc1C(F)F` [Example 385, 5-chloro-2-(difluoromethyl)-N-((1r,4r)-4-((3-(1-(2-hydroxyethyl)-1H-benzo[d][1,2,3]triazol-5-yl)-2-oxo-2,3-dihydro-1H-benzo[d]imidazol-1-yl)methyl)cyclohexyl)nicotinamide], the IC50 was under 300 nM.
On to `Cn1cnc2cc(-n3c(=O)n(C[C@H]4CC[C@H](NC(=O)c5cc(Cl)cnc5C(F)F)CC4)c4ccccc43)ccc21` [Example 386, 5-chloro-2-(difluoromethyl)-N-((1r,4r)-4-((1′-methyl-2-oxo-1′H-[1,5′-bibenzo[d]imidazol]-3(2H)-yl)methyl)cyclohexyl)nicotinamide], for which the IC50 was under 300 nM.
Next, `O=C(N[C@H]1CC[C@H](Cn2c(=O)n(-c3ccc4ncsc4c3)c3ncccc32)CC1)c1cc(Cl)cnc1C(F)F` [Example 387, N-((1r,4r)-4-((3-(benzo[d]thiazol-6-yl)-2-oxo-2,3-dihydro-1H-imidazo[4,5-b]pyridin-1-yl)methyl)cyclo-hexyl)-5-chloro-2-(difluoro-methyl)nicotinamide]: under 300 nM.
Next, `Cc1ccc(-n2c(=O)n(C[C@H]3CC[C@H](NC(=O)c4cc(Cl)cnc4C(F)F)CC3)c3cccnc32)cc1` [Example 389, 5-chloro-2-(difluoromethyl)-N-((1r,4r)-4-((2-oxo-3-(p-tolyl)-2,3-dihydro-1H-imidazo[4,5-b]pyridin-1-yl)methyl)cyclohexyl)nicotinamide]: under 300 nM; `CNC(=O)c1ccc(-n2c(=O)n(C[C@H]3CC[C@H](NC(=O)c4cc(Cl)cnc4C(F)F)CC3)c3ccc(OC)cc32)cn1` [Example 390, 5-(3-(((1r,4r)-4-(5-chloro-2-(difluoromethyl)nicotinamido)cyclohexyl)methyl)-6-me-thoxy-2-oxo-2,3-dihydro-1H-benzo[d]imidazol-1-yl)-N-methylpicolinamide]: under 300 nM; `CNc1cnc(-n2c(=O)n(C[C@H]3CC[C@H](NC(=O)c4cc(Cl)cnc4C(F)F)CC3)c3ccccc32)cn1` [Example 391, 5-chloro-2-(difluoromethyl)-N-((1r,4r)-4-((3-(5-(methyl-amino)pyrazin-2-yl)-2-oxo-2,3-dihydro-1H-benzo[d]imidazol-1-yl)methyl)cyclohexyl) nicotinamide]: under 300 nM.
Consider `O=C(N[C@H]1CC[C@H](Cn2c(=O)n(-c3ccc4ncccc4c3)c3ccccc32)CC1)c1cc(Cl)cnc1C(F)F` [Example 392, 5-chloro-2-(difluoromethyl)-N-((1r,4r)-4-((2-oxo-3-(quinolin-6-yl)-2,3-dihydro-1H-benzo[d]imidazol-1-yl)methyl)cyclohexyl)nicotinamide], for which the 50% inhibitory concentration (IC50) was under 300 nM.
Next, `O=C(N[C@H]1CC[C@H](Cn2c(=O)n(-c3cnc4ncccc4c3)c3ccccc32)CC1)c1cc(Cl)cnc1C(F)F` [Example 393, N-((1r,4r)-4-((3-(1,8-naph-thyridin-3-yl)-2-oxo-2,3-dihydro-1H-benzo[d]imidazol-1-yl)methyl)cyclohexyl)-5-chloro-2-(difluoromethyl) nicotinamide]: under 300 nM; `O=C(N[C@H]1CC[C@H](Cn2c(=O)n(-c3ccc4ncncc4c3)c3ccccc32)CC1)c1cc(Cl)cnc1C(F)F` [Example 394, 5-chloro-2-(difluoromethyl)-N-((1r,4r)-4-((2-oxo-3-(quinazolin-6-yl)-2,3-dihydro-1H-benzo[d]imidazol-1-yl)methyl)cyclohexyl)nicotinamide]: under 300 nM.

Usually IC50 stands for the concentration at which inhibition is half-maximal.

The values above are taken from patent US11802120B2, “Fused cyclic urea derivatives as CRHR2 antagonist” (RaQualia Pharma Inc., priority 2018, dated 2023).
